Converted amounts (≈) assume the structure as drawn.
Assay: Water solubility of KTZ in aqueous suspension without polymer
Format: physicochemical
Conditions: kinetic from dmso stock, aqueous suspension after precipitation from alcoholic solution, no polymer
Method: The selection of the appropriate Ketoconazole:polymer ratio (w/w) which is needed to dissolve drug crystals and to obtain homogeneous nanoparticles free from drug crystals was firstly optimized. For that purpose, 200 mg of KTZ were resuspended in different volumes of both absolute ethanol (10, 15 and 20 mL) as control solution or in the same volumes of GANTREZ® ES 425 ethanolic solution (50 mg/mL). GANTREZ® ES nanoparticles were produced by the addition of the corresponding volume of bidistilled water (2:1 (v/v) water/polymer solution) to GANTREZ® ES alcoholic solutions containing KTZ. […] Finally, the aqueous suspensions of KTZ-loaded GANTREZ® ES nanoparticles and KTZ aqueous suspension without the polymer were collected for further characterization and drug content quantification.
The amount of encapsulated drug in the nanoparticles was assayed by UV spectrophotometry at 257 nm (Shimadzu 1203 UV-VIS). In order to quantify the amount of KTZ in the nanoparticles suspension or free KTZ suspension without the polymer GANTREZ® ES), all samples of fleshly prepared formulations were evaporated under reduced pressure to eliminate ethanol, and then 1 mL of triplicate samples were centrifuged at 20,000 rpm for 25 min. […]

solubility: ~11 µg/mL (≈ 20.7 µM)
Compound: CC(=O)N1CCN(c2ccc(OCC3COC(Cn4ccnc4)(c4ccc(Cl)cc4Cl)O3)cc2)CC1 (stereo not shown) [KTZ, Ketoconazole]

Reference: patent US9351940B2, “Nanoparticles comprising esters of poly (methyl vinyl ether-co-maleic anhydride) and uses thereof” (priority 2011, dated 2016)
